For one compound, Ki results are on record in paper PMC11620503 (Antimicrobial Agents and Chemotherapy, 2024).

Where only a bound is given, the exact number is not on record here.

Targets include OXA-72 (Acinetobacter baumannii, UniProt Q5XQU0); NDM-1 (Klebsiella pneumoniae, UniProt C7C422); IMP-1 (Serratia marcescens, UniProt P52699); SHV-2 (Klebsiella pneumoniae, UniProt P0A9Z8); VIM-1 (Pseudomonas aeruginosa, UniProt A0A0F7KYQ8); SHV-5 (Klebsiella pneumoniae, UniProt P0A3M1); CTX-M-15 (Escherichia coli, UniProt Q9EXV5); NDM-5 (Klebsiella pneumoniae, UniProt C7C422, M154L/V88L); SHV-12 (Klebsiella pneumoniae, UniProt P0A3M1, L31Q); OXA-65 (Acinetobacter baumannii, UniProt Q58XD3); CTX-M-14 (Escherichia coli, UniProt Q9L5C7); KPC-3 (Klebsiella pneumoniae, UniProt Q9F663, H272Y); OXA-24 (Acinetobacter baumannii, UniProt Q8RLA6); CTX-M-27 (Escherichia coli, UniProt Q840M4); OXA-66 (Acinetobacter baumannii, UniProt Q58XD2); IMP-6 (Serratia marcescens, UniProt P52699, S214G); NDM-6 (Klebsiella pneumoniae, UniProt C7C422, A233V); KPC-2 (Klebsiella pneumoniae, UniProt Q9F663); VIM-2 (Escherichia coli, UniProt Q5U7L7); NDM-7 (Klebsiella pneumoniae, UniProt C7C422, D130N/M154L); OXA-23 (Acinetobacter baumannii, UniProt Q9L4P2); OXA-48 (Klebsiella pneumoniae, UniProt Q6XEC0); NDM-4 (Klebsiella pneumoniae, UniProt C7C422, M154L).

Assay in all cases: Ki app determination (Waley's method)
A further test addresses KPC-38 (Klebsiella pneumoniae, UniProt Q9F663). The following applies: read-out: Ki app, means from three independent studies.

Take `O=C(O)C[C@@H]1CC[C@H](NC(=O)Cc2cccs2)B(O)O1` [Vaborbactam, vaborbactam]: the Ki on OXA-72 is over 100 µM; on NDM-1 it was over 100 µM; at IMP-1, over 100 µM; on SHV-2, over 100 µM; at VIM-1, over 100 µM; at KPC-38, 0.0483 ± 0.0132 µM. In addition, the Ki is 1.42 µM on SHV-5; 0.0781 ± 0.00663 µM on CTX-M-15; over 100 µM on NDM-5; 0.755 ± 0.103 µM on SHV-12; over 100 µM at OXA-65; 0.392 ± 0.0203 µM on CTX-M-14. Moreover, the Ki was 0.0883 ± 0.0303 µM on KPC-3; over 100 µM on OXA-24; 0.351 ± 0.0287 µM on CTX-M-27; over 100 µM on OXA-66; over 100 µM at IMP-6; over 100 µM at NDM-6. For the same compound, the Ki at KPC-2 is 0.0637 ± 0.0249 µM; on VIM-2, over 100 µM; at NDM-7 it was over 100 µM; at OXA-23, over 100 µM; at OXA-48, over 100 µM; on NDM-4 it was over 100 µM.
